Broadly, the IC50 is the concentration that gives 50% inhibition. Higher therefore signals lower potency.

These results are taken from patent US9833431B2, “Pharmaceutical combinations for the treatment of cancer” (Pitney Pharmaceuticals Pty Limited, priority 2013, dated 2017).

SMILES strings stand for the structures.

One data set concerns 1A9. The data set can be described thus: SRB cytotoxicity assay, 1A9 cells. Type of data set: cell-based. As to conditions: Homo sapiens, 1A9, malignant, ovarian, 72 h. The protocol:
(§1) All cell lines described herein were purchased from ATCC. […] Control cultures were treated with ethanol alone.
A general note: Sulforhodamine B stains cellular protein and so reports cell mass.

The subject of another data set is HT-29. The data set can be described thus: cells. In kind it is cell-based. The settings on record: Homo sapiens; HT-29, malignant, colorectal; SRB, 72 h. Here is the method: as §1
Data set [1] deals with all cell lines and cells tested. The experiment in a line: SRB cytotoxicity assay, all cells of Table 3. In kind it is cell-based. Here is the method:
as §1

The test system of the next data set is HaCat. The data set can be described thus: SRB cytotoxicity assay, HaCat cells. In kind it is cell-based. The settings on record: Homo sapiens, immortalised, epidermal, 72 h. Here is the method: as §1
The test system of another data set is SKOV-3. The data set can be described thus: SRB cytotoxicity assay, SKOV-3 cells. Type of data set: cell-based. The settings on record: Homo sapiens, SK-OV-3, SKOV-3, malignant, ovarian, 72 h. The protocol:
as §1

The test system of the next data set is IGROV-1. The experiment in a line: SRB cytotoxicity assay, IGROV-1 cells. In kind it is cell-based. As to conditions: Homo sapiens, IGROV-1, malignant, ovarian, 72 h. Here is the method:
as §1

Another data set concerns A2780. The data set can be described thus: SRB cytotoxicity / proliferation assay, A2780 cells. As to conditions: Homo sapiens, A2780, 72 h.
The next data set concerns MCF-7. The experiment in a line: SRB cytotoxicity assay, MCF-7 cells. Type of data set: cell-based. The settings on record: Homo sapiens, MCF7, 72 h, MCF-7, malignant, breast. Here is the method:
as §1

Another data set relates to CHO. The data set can be described thus: SRB cytotoxicity assay, CHO cells. Type of data set: cell-based. The settings on record: Cricetulus griseus, immortalised, ovarian, 72 h. Here is the method:
as §1

A further data set has as its system LN-18. The experiment in a line: SRB cytotoxicity assay, LN-18 cells. In kind it is cell-based, human. The settings on record: Homo sapiens; LN-18, malignant, glial; SRB, 72 h. Here is the method: as §1
The subject of a further data set is HUVEC. The data set can be described thus: SRB cytotoxicity assay, HUVEC. In kind it is cell-based. The settings on record: Homo sapiens, non-malignant, endothelial, 72 h. The protocol:
as §1

The next data set deals with OVCAR-3. The data set can be described thus: SRB cytotoxicity / proliferation assay, OVCAR-3 cells. The settings on record: Homo sapiens, OVCAR-3, 72 h.

Experimental for A2780: (§2) Cells were seeded in 96-well plates (2,000-3,000 cells/well) and culture overnight prior to treatment with MPL. Control cultures were treated with ethanol alone.
Cells were seeded in 96-well plates (2,000-3,000 cells/well), treated with the indicated compound(s) for 72 h, fixed, washed and stained with 100 μl of 0.4% (w/v) SRB dissolved in 1% acetic acid. Unbound dye was removed by five washes with 1% acetic acid before air-drying.
Cell viability was conducted according to standard Trypan Blue method. Cell proliferation was assessed using the sulforhodamine B (SRB) assay. For viability experiments, cells were seeded in 6 well plates, whereas for proliferation assays cells were grown in 96 well plates. Following over-night attachment, cells were treated with the intended drug at various concentrations either alone or in combination with monepantel (MPL) for 72 h. Parallel to this, cells treated with MPL alone were also deployed for comparative purposes. Following incubation for 72 h in a standard cell culture incubator, effect of mono and combined drug treatments on cell viability and/or cell proliferation was assessed through using Trypan Blue or SRB assays respectively.
(§3) For viability assay, at the end of treatment period, cells were washed with PBS, trypsinized and counted using Trypan blue and hemocytometer. For the SRB assay cells were fixed, washed and stained with 100 μl of 0.4% (w/v) SRB dissolved in 1% acetic acid. Unbound dye was removed by five washes with 1% acetic acid before air drying. […] Monepantel (gift by Novartis, Basel, Switzerland) was dissolved in 100% ethanol and then diluted with the cell culture media.
Experimental for OVCAR-3: as §2
Cytotoxicity was assessed using the sulforhodamine B (SRB) assay and reported as half maximal inhibitory concentration (IC50; Table 3). Cells were seeded in 96-well plates (2,000-3,000 cells/well), treated with the indicated compound(s) for 72 h, fixed, washed and stained with 100 μl of 0.4% (w/v) SRB dissolved in 1% acetic acid. Unbound dye was removed by five washes with 1% acetic acid before air-drying.
In order to evaluate the effect of MPL on the in vitro efficacy of an established drug was evaluated using cell viability and cell proliferation assays. Cell viability was conducted according to standard Trypan Blue method. Cell proliferation was assessed using the sulforhodamine B (SRB) assay. For viability experiments, cells were seeded in 6 well plates, whereas for proliferation assays cells were grown in 96 well plates. Following over-night attachment, cells were treated with the intended drug at various concentrations either alone or in combination with monepantel (MPL) for 72 h. Parallel to this, cells treated with MPL alone were also deployed for comparative purposes. Following incubation for 72 h in a standard cell culture incubator, effect of mono and combined drug treatments on cell viability and/or cell proliferation was assessed through using Trypan Blue or SRB assays respectively.
as §3
MPL (5 μM) and combination drugs were applied for 72 h unless indicated.

With `C[C@](C#N)(COc1cc(C#N)ccc1C(F)(F)F)NC(=O)c1ccc(S(=O)(=O)C(F)(F)F)cc1` [MPL-SO2, monepantel sulphone], the IC50 in the data set with 1A9 amounted to 3.4 ± 0.1 µM; with HT-29, 2.8 ± 0.7 µM; in the data set with HaCat, 42.7 ± 8 µM; with SKOV-3, 26 µM; with IGROV-1, 4.4 ± 1.5 µM; in the data set on A2780 it was 4.2 ± 2.1 µM. The IC50 turned out to be 8 ± 0.7 µM in the data set with MCF-7; 73.7 ± 6.9 µM with CHO; 6.6 ± 0.7 µM in the data set on LN-18; 47 µM in the data set on HUVEC; 5.5 ± 1.3 µM in the data set with OVCAR-3. In addition, the “cytotoxicity compared with MPL” value in data set [1] is “generally comparable to the parent compound”.
